Reference: PubChem BioAssay (NCI)
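These data come from cells grown in 96-well plates and exposed to compound for 48 hours at five concentrations. GI50 is the concentration that inhibits growth by half. TGI: concentration producing complete growth inhibition.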

What was measured:
Assay in all cases: NCI anticancer screen, dose series, 48 h
A498 renal = system: A498 renal
EKVX NSCLC = system: EKVX NSCLC
HOP-62 NSCLC = system: HOP-62 NSCLC
HOP-92 NSCLC = system: HOP-92 NSCLC
K-562 leukemia = system: K-562 leukemia
MCF7 breast = system: MCF7 breast
NCI-H23 lung = system: NCI-H23 lung
OVCAR-5 ovarian = system: OVCAR-5 ovarian
SW-620 colon = system: SW-620 colon
UACC-257 melanoma = system: UACC-257 melanoma

| Compound | TGI (A498 renal) [µM] | TGI (EKVX NSCLC) [µM] | TGI (HOP-62 NSCLC) [µM] | TGI (HOP-92 NSCLC) [µM] | TGI (K-562 leukemia) [µM] | TGI (MCF7 breast) [µM] | TGI (NCI-H23 lung) [µM] | TGI (OVCAR-5 ovarian) [µM] | TGI (SW-620 colon) [µM] | TGI (UACC-257 melanoma) [µM] | GI50 (A498 renal) [µM] | GI50 (EKVX NSCLC) [µM] | GI50 (HOP-62 NSCLC) [µM] | GI50 (HOP-92 NSCLC) [µM] | GI50 (K-562 leukemia) [µM] | GI50 (MCF7 breast) [µM] | GI50 (NCI-H23 lung) [µM] | GI50 (OVCAR-5 ovarian) [µM] | GI50 (SW-620 colon) [µM] | GI50 (UACC-257 melanoma) [µM] |
| --- | --- | --- | --- | --- | --- | --- | --- | --- | --- | --- | --- | --- | --- | --- | --- | --- | --- | --- | --- | --- |
| COc1ccc(/C=C2\CCC(CN(C)C)C2=O)cc1 (centres undefined) | 28.9 | 37.5 | 33.6 | 28.2 | 7.25 | 6.03 | 18.3 | 30 | 4.32 | 13.3 |  |  |  |  |  |  |  |  |  |  |
| Nc1c(C(=O)Nc2cccc3ccccc23)sc2nc3c(cc12)CCCCCC3 | 42.5 | > 50 | > 50 | > 50 | > 50 | > 50 | > 50 | > 50 | > 50 | > 50 | 2.48 | 2.9 | 5.05 | 6.58 | 0.301 | 0.302 | 1.97 | 2.7 | 1.45 | > 50 |
| CCOc1ccc(-n2cc(-c3ccc(N(C)C)cc3)[n+]3c2CCCCC3)cc1 | 8.44 | > 100 | > 77.9 | 6.43 | > 100 | > 100 | > 43 | > 100 | > 100 | 2.44 | 1.22 | 0.244 | 2.3 | 1.14 | 0.128 | 0.14 | 0.0935 | 3.74 | 2.21 | 0.12 |
| O=C(O)c1cccc(F)c1C(=O)c1ccc2ccccc2c1 | > 100 | > 100 | > 100 | > 100 | > 100 | > 100 |  | > 100 | > 100 | > 100 |  |  |  |  |  |  |  |  |  |  |
| COC(=O)c1cccc(COc2ccc([N+](=O)[O-])cc2Cl)c1 | > 100 | > 100 | > 100 | > 100 | > 100 | > 100 | > 100 | > 100 | > 100 | > 100 |  |  |  |  |  |  |  |  |  |  |
| CCCCCCOc1ccc(/C=N/Nc2cc(C)nc3ccc(Br)cc23)cc1 | 3.09 | 3.14 | 2.94 | 2.97 | 2.96 | 3.35 | 3.43 | 3.36 | 3.56 | 3.65 | 1.58 | 1.72 | 1.47 | 1.45 | 1.07 | 1.64 | 1.78 | 1.94 | 1.56 | 1.95 |
| O=C1/C=C/[C@@H](O)[C@@H]2C[C@@H](O)C[C@H]2/C=C/CCCCO1 | 1.92 | > 21.4 | > 100 | > 20.8 | > 100 | 1.88 | 63.1 | > 61.7 | 0.752 | > 100 | 0.166 | 0.519 | 2.23 | 0.368 | 2.02 | 0.327 | 0.488 | 0.682 | 0.247 | 0.545 |
| Nc1c2c(c(O)c3c1=C(CO)C=N3)=NCCS2=O (centres undefined) | 25.3 | 7.51 | 3.38 | 5.46 | 8.07 | 2.83 | 5.64 | 3.91 | 4.22 | 3.14 | 12.2 | 2.51 | 1.86 | 2.67 | 2.81 | 0.63 | 0.615 | 1.66 | 2.1 | 1.62 |
| Clc1ccc2c(NCCCNCc3ccc4c(c3)OCO4)ccnc2c1 | 27.6 | 24 | 24.2 | 4.74 | 7.63 | 13 | 23.8 | 18.8 | 11.1 | 3.44 | 14.4 | 9.4 | 11.5 | 0.739 | 2.19 | 2.89 | 8.59 | 5.41 | 2.96 | 1.91 |
| CN(Cc1cccc(Cl)c1)c1ccc(CO)c(Cl)c1 | 0.169 | 52.1 | 25.6 | 19.8 | > 100 | 15.8 | 46.1 | 3.84 | > 42.9 | 2.15 | 0.041 | 18.4 | 6.77 | 3.15 | 8.76 | 1.55 | 11.5 | 0.602 | 5.93 | 0.569 |
